The values that follow come from US20100190724A1, “USE OF MELANOCYTE-STIMULATING HORMONE RELEASE-INHIBITING FACTOR AS A THERAPEUTIC AGENT IN THE TREATMENT OF PSEUDOMONAS AERUGINOSA INFECTION” (priority 2007, published 2010).

The experiment concerns drug-resistant Mycobacterium tuberculosis. The note with it: peptide 10 micrograms per ml, seven days.

Where a SMILES comes first, the peptide text is derived from it.

Broadly, the % inhibition is the change of the read-out against control, counted positive when it falls. A high value points to a strong effect. Turning to `CC(C)C[C@H](NC(=O)[C@@H]1CCCN1)C(=O)NCC(N)=O` [MSHRIF, Pro-Leu-Gly-NH2] (H-Pro-Leu-Gly-NH2), the “% inhibition” value worked out at 0.0%.
